In assay [1] the target is Epoxide hydrolase 1 (Oryctolagus cuniculus) (UniProt P04068). The assay is described as follows: Percent Enantiomeric composition (S,S) of trans-Dihydrodiol formed by Microsomal Epoxide Hydrolase from rabbit liver microsomes. On the technique in general: Liver microsomes are vesicles of endoplasmic reticulum, rich in cytochrome P450 enzymes.
For assay [2] the target is unchanged. The assay is described as follows: Percent Enantiomeric composition (R,R) of trans-Dihydrodiol formed by Microsomal Epoxide Hydrolase from rabbit liver microsomes.
For assay [3], the target named is T1, Epoxide hydrolase 1 (Rattus norvegicus) (UniProt P07687).
T1 sequence (whole entry): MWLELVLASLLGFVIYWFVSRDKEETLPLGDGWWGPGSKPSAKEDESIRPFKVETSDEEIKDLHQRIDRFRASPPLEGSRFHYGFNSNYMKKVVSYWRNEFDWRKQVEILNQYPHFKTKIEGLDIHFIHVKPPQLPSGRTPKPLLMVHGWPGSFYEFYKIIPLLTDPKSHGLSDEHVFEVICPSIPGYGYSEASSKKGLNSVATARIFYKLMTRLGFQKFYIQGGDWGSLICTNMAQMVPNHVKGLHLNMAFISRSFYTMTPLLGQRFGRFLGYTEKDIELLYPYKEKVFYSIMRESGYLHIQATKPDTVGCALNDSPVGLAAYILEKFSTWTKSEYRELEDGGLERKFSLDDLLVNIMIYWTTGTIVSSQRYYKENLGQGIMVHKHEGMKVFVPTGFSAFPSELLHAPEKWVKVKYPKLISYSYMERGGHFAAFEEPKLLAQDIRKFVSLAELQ
Kind of assay: Percent Enantiomeric composition (R,R) of trans-Dihydrodiol formed by Microsomal Epoxide Hydrolase from rat liver at 50 mM Tris-HCl buffer, pH 8.4 at 37 degrees C.

Assay [4] addresses T1, Epoxide hydrolase 1 (Rattus norvegicus). Kind of assay: Percent Enantiomeric composition (S,S) of trans-Dihydrodiol formed by Microsomal Epoxide Hydrolase from rat liver at 50 mM Tris-HCl buffer, pH 8.4 at 37 degrees C.

Each structure is given as a SMILES string.

Epoxide hydrolase 1 (Oryctolagus cuniculus), sequence (P04068 whole entry, looked up): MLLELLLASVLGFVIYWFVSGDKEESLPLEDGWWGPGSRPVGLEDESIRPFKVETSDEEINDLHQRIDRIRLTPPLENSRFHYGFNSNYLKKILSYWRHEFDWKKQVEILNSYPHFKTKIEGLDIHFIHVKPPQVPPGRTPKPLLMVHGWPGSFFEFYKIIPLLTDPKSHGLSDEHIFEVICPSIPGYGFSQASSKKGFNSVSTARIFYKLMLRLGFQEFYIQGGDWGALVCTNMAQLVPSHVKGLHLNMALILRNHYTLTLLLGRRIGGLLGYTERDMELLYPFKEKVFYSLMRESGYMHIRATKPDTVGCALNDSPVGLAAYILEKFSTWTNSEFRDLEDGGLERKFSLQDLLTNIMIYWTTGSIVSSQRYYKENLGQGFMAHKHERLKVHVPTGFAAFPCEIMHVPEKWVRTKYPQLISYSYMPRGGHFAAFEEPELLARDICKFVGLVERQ

Turning to `C1=CC2OC2C=C1` (stereo not drawn), the Enantiomeric composition was found to be 18% in assay [1] and 82% in assay [2].
With `c1ccc2c(c1)-c1ccccc1C1OC21` (stereo not drawn), the Enantiomeric composition in assay [3] turned out to be 42%; in assay [4] it was 58%.
For `c1ccc2c(c1)c1cccc3c1c1c(cccc21)C1OC31` (stereo not drawn) the same measures were 83% and 17%.
For `c1cc2c3c(c1)ccc1cccc(c13)C1OC21` (stereo not drawn) the same measures were 86% and 14%.

The record behind these values is ChEMBL document CHEMBL1150558, “Enantiomeric Composition of Trans-Dihydrodiols Formed from Meso-K-Region Arene Oxides by Microsomal Epoxide Hydrolase” (Bioorg Med Chem Lett, 1992).
